Experimental data reported in patent US9624238B2, “4H-thieno[3,2-C]chromene-based inhibitors of Notum Pectinacetylesterase and methods of their use” (Lexicon Pharmaceuticals, Inc., priority 2011, dated 2017).

Experiments:
[1] = target: T1, human notum pectinacetyltransferase (Homo sapiens, UniProt Q6P988); assay: Binding assay (OPTS esterase substrate, fluorimetric); type: biochemical
T1 construct: made in house; unpurified conditioned medium used
T1 sequence (Q6P988 20-496): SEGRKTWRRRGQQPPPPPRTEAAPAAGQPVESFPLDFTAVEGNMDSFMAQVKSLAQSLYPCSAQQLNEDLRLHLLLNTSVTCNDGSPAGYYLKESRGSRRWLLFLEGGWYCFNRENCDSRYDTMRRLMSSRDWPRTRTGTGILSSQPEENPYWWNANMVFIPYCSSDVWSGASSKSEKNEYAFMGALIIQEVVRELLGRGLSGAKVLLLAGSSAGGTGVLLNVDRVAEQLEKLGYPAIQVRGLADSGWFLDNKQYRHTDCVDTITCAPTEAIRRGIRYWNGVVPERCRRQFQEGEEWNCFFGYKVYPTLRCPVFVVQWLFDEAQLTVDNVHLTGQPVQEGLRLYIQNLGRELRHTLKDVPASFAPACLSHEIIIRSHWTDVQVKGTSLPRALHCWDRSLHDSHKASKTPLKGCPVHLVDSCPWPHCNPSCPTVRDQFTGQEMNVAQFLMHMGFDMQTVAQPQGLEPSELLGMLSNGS
Experimental: Plasmid containing human notum pectinacetyltransferase in pcDNA3.1(+) vector was transfected into HEK (293 cells and clones were selecting by growing in presence of 400 ug/mL of G418. Condition media from these cells was used for the assay.

[2] = target: T1, human notum pectinacetyltransferase; assay: Reporter assay (CellSensor LEF/TCF-bla FreeStyle 293F cells, Wnt3a and notum conditioned media); type: cell-based
[3] = given as numeric bound above the legend's highest class
[4] = given as a numeric bound above the legend's range

IC50 ([1]; class symbols) [nM] | EC50 ([2]; class symbols) [nM] | IC50 [1, 3] [nM] | IC50 [1, 4] [nM] | EC50 [2, 4] [nM] | Compound
< 1000 | < 50 |  |  |  | O=C(c1cc2c(s1)-c1cc(Cl)cc(F)c1OC2)N1CCC(F)C1 (stereo not drawn)
< 50 | < 50 |  |  |  | NC(=O)c1cc2c(s1)-c1ccccc1OC2 [4H-thieno[3,2-c]chromene-2-carboxamide]
 | < 1000 | > 2000 |  |  | O=C(O)c1cc2c(s1)-c1ccccc1S(=O)(=O)CC2
 | < 500 | > 2000 |  |  | COCCNC(=O)c1cc2c(s1)-c1ccccc1CCC2
 | < 100 |  | > 2000 |  | CC(C)c1ccc2c(c1)-c1sc(C(=O)O)cc1CO2
< 50 | < 50 |  |  |  | NC(=O)c1cc2c(s1)-c1cc(F)ccc1CCC2
< 2000 | < 50 |  |  |  | CNc1ccc2c(c1)CCc1cc(C(=O)O)sc1-2
 | < 500 | > 2000 |  |  | COc1ccc2c(c1)-c1sc(C(=O)O)cc1CC2
< 1000 | < 1000 |  |  |  | O=C(O)c1cc2c(s1)-c1ccccc1CCC2
 | < 1000 |  | > 2000 |  | COc1cccc2c1S(=O)(=O)Cc1cc(C(=O)O)sc1-2
< 1000 | < 50 |  |  |  | O=C(O)c1cc2c(s1)-c1cccc(Cl)c1OC2
< 50 | < 50 |  |  |  | CC1Cc2cc(C(N)=O)sc2-c2c(F)ccc(F)c21 (stereo not drawn)
< 50 | < 50 |  |  |  | CC1Cc2cc(C(N)=O)sc2-c2cc(F)cc(F)c21 (stereo not drawn)
< 1000 | < 50 |  |  |  | N#Cc1cccc2c1CCc1cc(C(N)=O)sc1-2
< 100 | < 100 |  |  |  | NC(=O)c1cc2c(s1)-c1cc(Cl)ccc1OCC2
< 100 | < 50 |  |  |  | O=C(O)CNC(=O)c1cc2c(s1)-c1ccccc1CC2
< 50 | < 50 |  |  |  | N#CCNC(=O)c1cc2c(s1)-c1ccccc1CC2
< 1000 | < 50 |  |  |  | NC(=O)c1cc2c(s1)-c1cccc(Cl)c1OC2
< 50 | < 50 |  |  |  | NC(=O)c1cc2c(s1)-c1cc(F)cc(F)c1SC2
< 1000 | < 50 |  |  |  | O=C(c1cc2c(s1)-c1cccc(F)c1CC2)N1CCC(F)C1 (stereo not drawn)
 | < 50 | > 2000 |  |  | COc1cccc2c1CCc1cc(C(=O)O)sc1-2

IC50 ([1]; class symbols) [nM] | EC50 ([2]; class symbols) [nM] | IC50 [1, 3] [nM] | IC50 [1, 4] [nM] | EC50 [2, 4] [nM] | Compound
< 100 | < 50 |  |  |  | NC(=O)c1cc2c(s1)-c1ccc(Cl)c(Cl)c1SC2
< 100 | < 50 |  |  |  | CC1Cc2cc(C(N)=O)sc2-c2ccc(Cl)cc21 (stereo not drawn)
< 50 | < 50 |  |  |  | O=C(NCc1ccccn1)c1cc2c(s1)-c1ccc(F)c(F)c1CC2
< 50 | < 50 |  |  |  | O=C(O)C1CN(C(=O)c2cc3c(s2)-c2ccc(Cl)c(Cl)c2OC3)CC1c1ccccc1F (racemic)
< 50 | < 50 |  |  |  | NC(=O)c1cc2c(s1)-c1c(F)ccc(F)c1SC2 [6,9-difluoro-4H-thieno[3,2-c]thiochromene-2-carboxamide]
< 50 | < 50 |  |  |  | NC(=O)c1cc2c(s1)-c1cccc(F)c1CC2
< 50 | < 50 |  |  |  | Cc1ccc2c(c1Cl)CCc1cc(C(N)=O)sc1-2
< 1000 | < 50 |  |  |  | COC(=O)C1CCN(C(=O)c2cc3c(s2)-c2cc(F)cc(F)c2SC3)C1 (stereo not drawn)
< 50 | < 50 |  |  |  | COc1ccc2c(c1Br)CCc1cc(C(N)=O)sc1-2
< 1000 | < 50 |  |  |  | COc1ccccc1C1CN(C(=O)c2cc3c(s2)-c2ccc(Cl)c(F)c2OC3)CC1C(=O)O (stereo not drawn)
< 1000 | < 50 |  |  |  | O=C(NCCO)c1cc2c(s1)-c1ccccc1CC2 [N-(2-hydroxyethyl)-4,5-dihydronaphtho[1,2-b]thiophene-2-carboxamide]
< 1000 | < 50 |  |  |  | O=C(O)c1cc2c(s1)-c1ccc(F)c(F)c1OC2
< 1000 | < 50 |  |  |  | COc1ccc2c(c1Cl)CCc1cc(C(=O)NCCN3CCOCC3)sc1-2
< 2000 | < 500 |  |  |  | CN(C)c1ccc2c(c1)CCc1cc(C(=O)O)sc1-2
< 1000 | < 500 |  |  |  | CC1(C)Oc2c(F)cc(F)cc2-c2sc(C(N)=O)cc21
< 100 | < 50 |  |  |  | NC(=O)c1cc2c(s1)-c1cc(F)c(F)cc1OC2
< 50 | < 50 |  |  |  | NC(=O)c1cc2c(s1)-c1ccc(Cl)c(F)c1OC2
< 1000 | < 50 |  |  |  | O=C(O)c1cc2c(s1)-c1c(F)ccc(Cl)c1OC2
< 1000 | < 50 |  |  |  | O=C(NCCO)c1cc2c(s1)-c1cccc(F)c1CC2
< 2000 | < 50 |  |  |  | Cc1cccc2c1OCc1cc(C(=O)O)sc1-2
< 100 | < 50 |  |  |  | O=C(NCc1ncco1)c1cc2c(s1)-c1cccc(F)c1CC2

IC50 ([1]; class symbols) [nM] | EC50 ([2]; class symbols) [nM] | IC50 [1, 3] [nM] | IC50 [1, 4] [nM] | EC50 [2, 4] [nM] | Compound
< 50 | < 50 |  |  |  | CC1Cc2cc(C(=O)O)sc2-c2c(F)ccc(F)c21 (stereo not drawn)
< 100 | < 50 |  |  |  | NC(=O)c1cc2c(s1)-c1ccc(Cl)cc1OC2
< 1000 | < 100 |  |  |  | CCOC(=O)c1cc2c(s1)-c1ccc(Cl)c(F)c1SC2
< 100 | < 50 |  |  |  | Cc1cc(F)cc2c1OCc1cc(C(=O)O)sc1-2
 |  |  | > 2000 | > 1000 | N#Cc1ccc2c(c1)OCc1cc(C(N)=O)sc1-2
< 1000 | < 50 |  |  |  | NC(=O)c1cc2c(s1)-c1cccc(Cl)c1SC2
< 1000 | < 50 |  |  |  | COc1cc(F)c2c(c1)-c1sc(C(=O)O)cc1CC2
 | < 1000 | > 2000 |  |  | N#Cc1ccc2c(c1)CCc1cc(C(=O)O)sc1-2
< 2000 | < 100 |  |  |  | CC(=O)N1Cc2cc(C(=O)O)sc2-c2ccccc21
< 50 | < 50 |  |  |  | NC(=O)c1cc2c(s1)-c1c(F)cc(F)cc1OC2 [7,9-difluoro-4H-thieno[3,2-c]chromene-2-carboxamide]
< 100 | < 50 |  |  |  | N#CC1CCN(C(=O)c2cc3c(s2)-c2cccc(F)c2CC3)C1 (stereo not drawn)
< 100 | < 100 |  |  |  | N#CCCNC(=O)c1cc2c(s1)-c1cccc(F)c1CC2
< 2000 | < 100 |  |  |  | COC(=O)CNC(=O)c1cc2c(s1)-c1cc(C)cc(C)c1CC2
< 100 | < 50 |  |  |  | O=C(O)c1cc2c(s1)-c1cccc(Cl)c1CC2
< 2000 | < 50 |  |  |  | CC1(C)Cc2cc(C(=O)O)sc2-c2ccc(Cl)cc21
< 1000 | < 50 |  |  |  | Cc1ccc(Cl)c2c1-c1sc(C(=O)O)cc1CO2
< 1000 | < 50 |  |  |  | Cc1cc(Cl)cc2c1OCc1cc(C(=O)O)sc1-2
< 100 | < 50 |  |  |  | O=C1CCN(C(=O)c2cc3c(s2)-c2ccc(Cl)c(Cl)c2OC3)C1
< 50 | < 50 |  |  |  | CC1Cc2cc(C(N)=O)sc2-c2cc(F)ccc21 (stereo not drawn)
< 1000 | < 50 |  |  |  | Cc1cc2c(cc1Cl)-c1sc(C(=O)O)cc1CO2
< 100 | < 500 |  |  |  | CCCNC(=O)c1cc2c(s1)-c1ccccc1CC2

IC50 ([1]; class symbols) [nM] | EC50 ([2]; class symbols) [nM] | IC50 [1, 3] [nM] | IC50 [1, 4] [nM] | EC50 [2, 4] [nM] | Compound
< 1000 | < 50 |  |  |  | COCCNC(=O)c1cc2c(s1)-c1ccc(OC)c(Cl)c1CC2
< 50 | < 50 |  |  |  | CC1Cc2cc(C(=O)O)sc2-c2cc(F)ccc21 (stereo not drawn)
< 1000 | < 50 |  |  |  | O=C(O)C1CCN(C(=O)c2cc3c(s2)-c2cc(F)cc(F)c2SC3)C1 (stereo not drawn)
 | < 500 | > 2000 |  |  | O=C(NCCN1CCOCC1)c1cc2c(s1)-c1ccc(Cl)c(F)c1OC2
< 1000 | < 50 |  |  |  | COc1ccc2c(c1Cl)CCc1cc(C(=O)NCCO)sc1-2
 | < 500 | > 2000 |  |  | CCOC(=O)c1cc2c(s1)-c1ccc(OC)cc1CC2 [ethyl 7-methoxy-4,5-dihydronaphtho[1,2-b]thiophene-2-carboxylate]
 | < 500 | > 2000 |  |  | O=C(O)c1cc2c(s1)-c1cc(F)cc(F)c1[S+]([O-])C2 (stereo not drawn) [6,8-difluoro-4H-thieno[3,2-c]thiochromene-2-carboxylic acid 5-oxide]
 | < 500 |  | > 2000 |  | O=C(NCCn1ccnc1)c1cc2c(s1)-c1cccc(F)c1CC2
< 100 | < 50 |  |  |  | O=C(O)C1CCN(C(=O)c2cc3c(s2)-c2c(F)ccc(F)c2SC3)C1 (stereo not drawn)
< 2000 | < 50 |  |  |  | NC(=O)c1cc2c(s1)-c1ccc(Cl)c(Cl)c1OCC2
< 50 | < 50 |  |  |  | O=C(O)c1cc2c(s1)-c1ccccc1OCC2
< 1000 | < 50 |  |  |  | COc1ccc2c(c1C#N)CCc1cc(C(N)=O)sc1-2
< 50 | < 50 |  |  |  | NC(=O)c1cc2c(s1)-c1c(F)cccc1OC2
< 50 | < 50 |  |  |  | O=C(O)c1cc2c(s1)-c1cc(F)ccc1OCC2
 | < 500 | > 2000 |  |  | CCOC(=O)c1cc2c(s1)-c1cccc(OC)c1CC2
< 1000 | < 50 |  |  |  | Cc1cccc2c1OCc1cc(C(N)=O)sc1-2
< 100 | < 50 |  |  |  | NC(=O)c1cc2c(s1)-c1cc(Cl)cc(F)c1OC2
< 100 | < 50 |  |  |  | Cc1cc2c(cc1F)-c1sc(C(=O)O)cc1CO2
< 1000 | < 50 |  |  |  | O=C(O)c1cc2c(s1)-c1cc(Cl)cc(Cl)c1SC2
 | < 500 |  | > 2000 |  | COc1ccc2c(c1)-c1sc(C(=O)O)cc1CS2(=O)=O
< 1000 | < 50 |  |  |  | Cc1cc(F)cc2c1SCc1cc(C(=O)O)sc1-2
